For orientation: IC50 means the midpoint of a concentration-inhibition curve.

Structures are written as SMILES.

The first assay deals with T1, human Keap1 kelch domain (amino acids Ala321-Thr609) (Homo sapiens, UniProt Q14145).
T1 construct: human Keap1 kelch domain (amino acids Ala321-Thr609)
T1 sequence (Q14145 321-609): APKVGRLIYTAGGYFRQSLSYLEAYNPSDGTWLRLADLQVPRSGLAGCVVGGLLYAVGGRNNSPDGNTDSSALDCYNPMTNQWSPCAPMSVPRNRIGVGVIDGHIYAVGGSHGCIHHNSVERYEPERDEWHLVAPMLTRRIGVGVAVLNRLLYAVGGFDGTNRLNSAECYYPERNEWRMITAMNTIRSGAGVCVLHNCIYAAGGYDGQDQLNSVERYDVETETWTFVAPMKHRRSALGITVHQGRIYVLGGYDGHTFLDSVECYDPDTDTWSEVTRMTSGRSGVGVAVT
The assay can be described thus: Keap1-Nrf2 peptide binding assay (fluorescence polarisation). As to conditions: binding to fluorescently labeled human Nrf2 peptide; 20 nM Keap1 kelch domain, 50 nM peptide. On the procedure:
Keap1-Nrf2 peptide binding assay
Two microliters of test compound in reaction buffer (phosphate-buffered saline, 2 mM DL-dithiothreitol, 0.015 % (v/v) Brij-35) containing 6 % (v/v) DMSO were mixed with two microliters of the Keap1 kelch domain in reaction buffer in a black 384-well small volume microtiter plate and incubated at ambient temperature for 15 minutes. Thereafter, two microliters were added of the fluorescently labeled Nrf2 peptide in reaction buffer, and the mixture was incubated for a further 30 minutes at ambient temperature. Final concentrations of the Keap1 kelch domain and the fluorescently labeled Nrf2 peptide were 20 nM and 50 nM, respectively.
Fluorescence polarization (FP) was measured at excitation and emission wavelengths of 635 nm and 660 nm, respectively. Positive controls for binding (two microliters of reaction buffer containing 6 % (v/v) DMSO instead of test compound in the same buffer) and negative controls (as positive controls, but without Keap1 kelch domain) were included on each microtiter plate.
On the technique in general: Polarisation of emitted light reports the rotation of a fluorescent probe.
As for `Cc1nn(-c2ccccc2)c(C)c1S(=O)(=O)Nc1ccc(N2CC[C@@H](C(=O)O)C2)c2ccccc12` [Example 42, (3R)-1-[4-[(3,5-dimethyl-1-phenyl-pyrazol-4-yl)sulfonylamino]-1-naphthyl]pyrrolidine-3-carboxylic acid], the IC50 was determined as 3000 nM. On the same count and under the same terms, next, `Cc1ccc(Cl)cc1S(=O)(=O)Nc1ccc(N2CC[C@@H](C(=O)O)C2)c2ccccc12` [Example 43, (3R)-1-[4-[(5-chloro-2-methylphenyl)sulfonylamino]-1-naphthyl]pyrrolidine-3-carboxylic acid]: 1200 nM; `O=C(O)[C@@H]1CCN(c2ccc(NS(=O)(=O)c3cc(F)c(F)cc3Cl)c3ccccc23)C1` [Example 45, (3R)-1-[4-[(2-chloro-4,5-difluorophenyl)sulfonylamino]-1-naphthyl]pyrrolidine-3-carboxylic acid]: 4500 nM; `O=C(O)[C@@H]1CCN(c2ccc(NS(=O)(=O)c3cc(F)cc(F)c3Cl)c3ccccc23)C1` [Example 46, (3R)-1-[4-[(2-chloro-3,5-difluorophenyl)sulfonylamino]-1-naphthyl]pyrrolidine-3-carboxylic acid]: 7400 nM. Turning to `COc1ccc(S(=O)(=O)Nc2ccc(N3CC[C@@H](C(=O)O)C3)c3ccccc23)c(OC)c1` [Example 47, (3R)-1-[4-[(2,4-dimethoxyphenyl)sulfonylamino]-1-naphthyl]pyrrolidine-3-carboxylic acid], the IC50 stood at 6100 nM. On the same count and under the same terms, then `O=C(O)[C@@H]1CCN(c2ccc(NS(=O)(=O)c3cc(Cl)ccc3Cl)c3ccccc23)C1` [Example 48, (3R)-1-[4-[(2,5-dichlorophenyl)sulfonylamino]-1-naphthyl]pyrrolidine-3-carboxylic acid], with 2500 nM; and `Cc1c(S(=O)(=O)Nc2ccc(N3CC[C@@H](C(=O)O)C3)c3ccccc23)cnn1CC(C)C` [Example 49, (3R)-1-[4-[(1-isobutyl-5-methyl-pyrazol-4-yl)sulfonylamino]-1-naphthyl]pyrrolidine-3-carboxylic acid], with 2900 nM. The same measure, in the same setting: next, `Cc1nn(C)c(Cl)c1S(=O)(=O)Nc1ccc(N2CC[C@@H](C(=O)O)C2)c2ncccc12` [Example 52, (3R)-1-[5-[(5-chloro-1,3-dimethyl-pyrazol-4-yl)sulfonylamino]-8-quinolyl]pyrrolidine-3-carboxylic acid]: 2700 nM; `CCCn1ncc(S(=O)(=O)Nc2ccc(N3CC[C@@H](C(=O)O)C3)c3ccccc23)c1C` [Example 54, (3R)-1-[4-[(5-methyl-1-propyl-pyrazol-4-yl)sulfonylamino]-1-naphthyl]pyrrolidine-3-carboxylic acid]: 1800 nM; `Cc1c(S(=O)(=O)Nc2ccc(N3CC[C@@H](C(=O)O)C3)c3ncccc23)c2ccccc2n1C` [Example 71, (3R)-1-[5-[(1,2-dimethylindol-3-yl)sulfonylamino]-8-quinolyl]pyrrolidine-3-carboxylic acid]: 1100 nM.

Turning to `O=C(O)[C@@H]1CCN(c2ccc(NS(=O)(=O)c3cccc4c3OCCO4)c3ccccc23)C1` [Example 74, (3R)-1-[4-(2,3-dihydro-1,4-benzodioxin-5-ylsulfonylamino)-1-naphthyl]pyrrolidine-3-carboxylic acid], the concentration for half-maximal inhibition (IC50) came to 9100 nM.

Staying with this assay, now noted: binding to fluorescently labeled human Nrf2 peptide; 20 nM Keap1 kelch domain, 50 nM peptide; read-out: IC50.
For `COc1ccc(F)c(S(=O)(=O)Nc2ccc(N3CC[C@@H](C(=O)O)C3)c3ccccc23)c1` [Example 44, (3R)-1-[4-[(2-fluoro-5-methoxyphenyl)sulfonylamino]-1-naphthyl]pyrrolidine-3-carboxylic acid], the half-inhibitory concentration (IC50) was 2500 nM. Turning to `Cc1c(S(=O)(=O)Nc2ccc(N3CC[C@@H](C(=O)O)C3)c3ccccc23)cnn1C1CCCC1` [Example 50, (3R)-1-[4-[(1-cyclopentyl-5-methyl-pyrazol-4-yl)sulfonylamino]-1-naphthyl]pyrrolidine-3-carboxylic acid], the IC50 is 2800 nM. Still for that read-out and setting: next, `Cc1cc(C)c(C)c(S(=O)(=O)Nc2ccc(C3=CCC(C(=O)O)CC3)c3ccccc23)c1C` (stereo not drawn) [Example 57, 4-[4-[(2,3,5,6-tetramethylphenyl)sulfonylamino]-1-naphthyl]cyclohex-3-ene-1-carboxylic acid]: 600 nM; `Cc1cc(C)c(C)c(S(=O)(=O)Nc2ccc(N3CCC[C@@H](C(=O)O)C3)c3ccccc23)c1C` [Example 58, (3R)-1-[4-[(2,3,5,6-tetramethylphenyl)sulfonylamino]-1-naphthyl]piperidine-3-carboxylic acid]: 270 nM; `Cc1cc(C)c(C)c(S(=O)(=O)Nc2ccc(N3CCC[C@H](C(=O)O)C3)c3ccccc23)c1C` [Example 59, (3S)-1-[4-[(2,3,5,6-tetramethylphenyl)sulfonylamino]-1-naphthyl]piperidine-3-carboxylic acid]: 500 nM. As for `Cc1c(S(=O)(=O)Nc2ccc(N3CC[C@@H](C(=O)O)C3)c3ccccc23)sc2cccc(F)c12` [Example 60, (3R)-1-[4-[(4-fluoro-3-methyl-benzothiophen-2-yl)sulfonylamino]-1-naphthyl]pyrrolidine-3-carboxylic acid], the half-inhibitory concentration (IC50) was 130 nM.

In the case of `Cc1c(S(=O)(=O)Nc2ccc(N3CC[C@@H](C(=O)O)C3)c3ccccc23)c2ccccc2n1C` [Example 63, (3R)-1-[4-[(1,2-dimethylindol-3-yl)sulfonylamino]-1-naphthyl]pyrrolidine-3-carboxylic acid], the IC50 worked out at 260 nM. On the same count and under the same terms, next, `Cn1ccc2c(S(=O)(=O)Nc3ccc(N4CC[C@@H](C(=O)O)C4)c4ccccc34)cccc21` [Example 64, (3R)-1-[4-[(1-methylindol-4-yl)sulfonylamino]-1-naphthyl]pyrrolidine-3-carboxylic acid]: 500 nM; `CCCCCCCCn1nc(C)c(S(=O)(=O)Nc2ccc(N3CC[C@@H](C(=O)O)C3)c3ccccc23)c1C` [Example 65, (3R)-1-[4-[(3,5-dimethyl-1-octyl-pyrazol-4-yl)sulfonylamino]-1-naphthyl]pyrrolidine-3-carboxylic acid]: 190 nM. On to `Cc1c(S(=O)(=O)Nc2ccc(N3CC[C@@H](C(=O)O)C3)c3ncccc23)sc2cccc(F)c12` [Example 70, (3R)-1-[5-[(4-fluoro-3-methyl-benzothiophen-2-yl)sulfonylamino]-8-quinolyl]pyrrolidine-3-carboxylic acid], for which the half-inhibitory concentration (IC50) was found to be 300 nM. The same measure, in the same setting: then `Cc1c(S(=O)(=O)Nc2ccc(N3CC[C@@H](C(=O)O)C3)c3ncccc23)sc2ccc(Cl)cc12` [Example 72, (3R)-1-[5-[(5-chloro-3-methyl-benzothiophen-2-yl)sulfonylamino]-8-quinolyl]pyrrolidine-3-carboxylic acid], with 400 nM; and `CCCCCCCCn1nc(C)c(S(=O)(=O)Nc2ccc(N3CC[C@@H](C(=O)O)C3)c3ncccc23)c1C` [Example 73], with 1600 nM. For `O=C(O)[C@@H]1CCN(c2ccc(NS(=O)(=O)c3ccc4c(c3)CCCC4)c3ccccc23)C1` [Example 77, (3R)-1-[4-(tetralin-6-ylsulfonylamino)-1-naphthyl]pyrrolidine-3-carboxylic acid], the IC50 was determined as 600 nM.
